Test results: ChEMBL document CHEMBL3124777, “Synthesis and biological evaluation of thiazoline derivatives as new antimicrobial and anticancer agents” (Eur J Med Chem, 2014)
≈ marks a conversion by molar mass, not a printed value.

Key:
[1] = tested on: Aspergillus parasiticus; assay: Antimicrobial activity against Aspergillus parasiticus NRRL 465 after 48 to 72 hrs by microbroth dilution method; type: functional
[2] = tested on: NIH3T3; assay: Cytotoxicity against mouse NIH/3T3 cells after 24 hrs by MTT assay; type: cell-based; details: NIH3T3, 24 h
[3] = tested on: Candida albicans; assay: Antimicrobial activity against Candida albicans ATCC 22019 after 18 to 24 hrs by microbroth dilution method; type: functional
[4] = tested on: Escherichia coli; assay: Antimicrobial activity against Escherichia coli ATCC 25922 after 18 to 24 hrs by microbroth dilution method; type: functional
[5] = tested on: Fusarium verticillioides; assay: Antimicrobial activity against Fusarium moniliforme NRRL 1866 after 48 to 72 hrs by microbroth dilution method; type: functional
[6] = tested on: Penicillium chrysogenum; assay: Antimicrobial activity against Penicillium chrysogenum NRRL 1951 after 48 to 72 hrs by microbroth dilution method; type: functional
[7] = tested on: Trichoderma harzianum; assay: Antimicrobial activity against Trichoderma harzianum NRRL 20565 after 48 to 72 hrs by microbroth dilution method; type: functional
[8] = tested on: Micrococcus luteus; assay: Antimicrobial activity against Micrococcus luteus NRLL B-4375 after 18 to 24 hrs by microbroth dilution method; type: functional
[9] = tested on: Staphylococcus aureus; assay: Antimicrobial activity against Staphylococcus aureus NRRL B-767 after 18 to 24 hrs by microbroth dilution method; type: functional
[10] = tested on: Fusarium culmorum; assay: Antimicrobial activity against wild type Fusarium culmorum after 48 to 72 hrs by microbroth dilution method; type: functional
[11] = tested on: Pseudomonas aeruginosa; assay: Antimicrobial activity against Pseudomonas aeruginosa […] after 18 to 24 hrs by microbroth dilution method; type: functional
[12] = tested on: Listeria monocytogenes; assay: Antimicrobial activity against Listeria monocytogenes ATCC 7644 after 18 to 24 hrs by microbroth dilution method; type: functional
[13] = tested on: Aspergillus ochraceus; assay: Antimicrobial activity against Aspergillus ochraceus NRRL 3174 after 48 to 72 hrs by microbroth dilution method; type: functional
[14] = tested on: Bacillus subtilis; assay: Antimicrobial activity against Bacillus subtilis NRS-744 after 18 to 24 hrs by microbroth dilution method; type: functional
[15] = tested on: Fusarium solani; assay: Antimicrobial activity against Fusarium solani NRRL 13414 after 48 to 72 hrs by microbroth dilution method; type: functional

| Structure (SMILES) | MIC [1] [mg/L] | MIC [3] [mg/L] | MIC [4] [mg/L] | MIC [5] [mg/L] | MIC [6] [mg/L] | MIC [7] [mg/L] | MIC [8] [mg/L] | MIC [9] [mg/L] | MIC [10] [mg/L] | MIC [11] [mg/L] | MIC [12] [mg/L] | MIC [13] [mg/L] | MIC [14] [mg/L] | MIC [15] [mg/L] | IC50 [2] [mg/L] |
| --- | --- | --- | --- | --- | --- | --- | --- | --- | --- | --- | --- | --- | --- | --- | --- |
| Cn1cnnc1SCC(=O)N/N=c1/scc(-c2ccc(Br)cc2)n1-c1ccccc1 | 250 (≈ 499 µM) | 250 (≈ 499 µM) | 250 (≈ 499 µM) | 250 (≈ 499 µM) | 250 (≈ 499 µM) | 125 (≈ 249 µM) | 250 (≈ 499 µM) | 250 (≈ 499 µM) | 250 (≈ 499 µM) | 250 (≈ 499 µM) | 250 (≈ 499 µM) | 250 (≈ 499 µM) | 250 (≈ 499 µM) | 250 (≈ 499 µM) | 58.3 (≈ 116 µM) |
| CC(=O)N1CCN(c2ccc(OCC3COC(Cn4ccnc4)(c4ccc(Cl)cc4Cl)O3)cc2)CC1 (stereo not drawn) [KETOCONAZOLE] | 125 (≈ 235 µM) | 250 (≈ 470 µM) | – | 500 (≈ 941 µM) | 7.8 (≈ 14.7 µM) | 250 (≈ 470 µM) | – | – | 500 (≈ 941 µM) | – | – | 250 (≈ 470 µM) | – | 500 (≈ 941 µM) | – |
| O=C(CSc1ncccn1)N/N=c1/scc(-c2ccccc2)n1-c1ccccc1 | 250 (≈ 596 µM) | 250 (≈ 596 µM) | 250 (≈ 596 µM) | 250 (≈ 596 µM) | 250 (≈ 596 µM) | 250 (≈ 596 µM) | 250 (≈ 596 µM) | 250 (≈ 596 µM) | 250 (≈ 596 µM) | 250 (≈ 596 µM) | 250 (≈ 596 µM) | 250 (≈ 596 µM) | 500 (≈ 1190 µM) | 250 (≈ 596 µM) | 107 (≈ 254 µM) |
| O=C(CSc1nnnn1-c1ccccc1)N/N=c1/scc(-c2ccc([N+](=O)[O-])cc2)n1-c1ccccc1 | 250 (≈ 471 µM) | 250 (≈ 471 µM) | 250 (≈ 471 µM) | 250 (≈ 471 µM) | 250 (≈ 471 µM) | 125 (≈ 236 µM) | 500 (≈ 942 µM) | 250 (≈ 471 µM) | 250 (≈ 471 µM) | 250 (≈ 471 µM) | 250 (≈ 471 µM) | 250 (≈ 471 µM) | 250 (≈ 471 µM) | 250 (≈ 471 µM) | 14.3 (≈ 27 µM) |
| Cc1nnc(SCC(=O)N/N=c2/scc(-c3ccc(C#N)cc3)n2-c2ccccc2)s1 | 250 (≈ 538 µM) | 250 (≈ 538 µM) | 250 (≈ 538 µM) | 250 (≈ 538 µM) | 250 (≈ 538 µM) | 125 (≈ 269 µM) | 250 (≈ 538 µM) | 250 (≈ 538 µM) | 250 (≈ 538 µM) | 250 (≈ 538 µM) | 250 (≈ 538 µM) | 250 (≈ 538 µM) | 250 (≈ 538 µM) | 250 (≈ 538 µM) | < 3.9 |

More lines, in order of falling MIC [1], values ahead:

| MIC [1] [mg/L] | MIC [3] [mg/L] | MIC [4] [mg/L] | MIC [5] [mg/L] | MIC [6] [mg/L] | MIC [7] [mg/L] | MIC [8] [mg/L] | MIC [9] [mg/L] | MIC [10] [mg/L] | MIC [11] [mg/L] | MIC [12] [mg/L] | MIC [13] [mg/L] | MIC [14] [mg/L] | MIC [15] [mg/L] | Structure (SMILES) | IC50 [2] [mg/L] |
| --- | --- | --- | --- | --- | --- | --- | --- | --- | --- | --- | --- | --- | --- | --- | --- |
| 250 (≈ 567 µM) | 250 (≈ 567 µM) | 125 (≈ 284 µM) | 250 (≈ 567 µM) | 250 (≈ 567 µM) | 250 (≈ 567 µM) | 250 (≈ 567 µM) | 125 (≈ 284 µM) | 250 (≈ 567 µM) | 125 (≈ 284 µM) | 125 (≈ 284 µM) | 250 (≈ 567 µM) | 250 (≈ 567 µM) | 250 (≈ 567 µM) | Cn1cnnc1SCC(=O)N/N=c1/scc(-c2ccc(F)cc2)n1-c1ccccc1 | 65 (≈ 148 µM) |
| 250 (≈ 538 µM) | 250 (≈ 538 µM) | 250 (≈ 538 µM) | 250 (≈ 538 µM) | 250 (≈ 538 µM) | 250 (≈ 538 µM) | 250 (≈ 538 µM) | 250 (≈ 538 µM) | 250 (≈ 538 µM) | 250 (≈ 538 µM) | 250 (≈ 538 µM) | 250 (≈ 538 µM) | 250 (≈ 538 µM) | 250 (≈ 538 µM) | O=C(CSc1ncccn1)N/N=c1/scc(-c2ccc([N+](=O)[O-])cc2)n1-c1ccccc1 | 193 (≈ 416 µM) |
| 250 (≈ 535 µM) | 250 (≈ 535 µM) | 250 (≈ 535 µM) | 250 (≈ 535 µM) | 250 (≈ 535 µM) | 250 (≈ 535 µM) | 125 (≈ 267 µM) | 250 (≈ 535 µM) | 250 (≈ 535 µM) | 250 (≈ 535 µM) | 250 (≈ 535 µM) | 250 (≈ 535 µM) | 125 (≈ 267 µM) | 250 (≈ 535 µM) | Cn1cnnc1SCC(=O)N/N=c1/scc(-c2ccc([N+](=O)[O-])cc2)n1-c1ccccc1 | 133 (≈ 285 µM) |
| 250 (≈ 552 µM) | 250 (≈ 552 µM) | 250 (≈ 552 µM) | 250 (≈ 552 µM) | 250 (≈ 552 µM) | 250 (≈ 552 µM) | 250 (≈ 552 µM) | 250 (≈ 552 µM) | 250 (≈ 552 µM) | 250 (≈ 552 µM) | 250 (≈ 552 µM) | 250 (≈ 552 µM) | 250 (≈ 552 µM) | 250 (≈ 552 µM) | COc1ccc(-c2cs/c(=N/NC(=O)CSc3nncn3C)n2-c2ccccc2)cc1 | 167 (≈ 368 µM) |
| 250 (≈ 547 µM) | 250 (≈ 547 µM) | 125 (≈ 274 µM) | 250 (≈ 547 µM) | 250 (≈ 547 µM) | 125 (≈ 274 µM) | 125 (≈ 274 µM) | 125 (≈ 274 µM) | 250 (≈ 547 µM) | 250 (≈ 547 µM) | 250 (≈ 547 µM) | 250 (≈ 547 µM) | 125 (≈ 274 µM) | 250 (≈ 547 µM) | Cn1cnnc1SCC(=O)N/N=c1/scc(-c2ccc(Cl)cc2)n1-c1ccccc1 | 51.7 (≈ 113 µM) |
